From patent US10398144B2, “N-,C-disubstituted azoles and compositions and methods for controlling nematode pests” (Monsanto Technology LLC, priority 2013, dated 2019)
Marks after values point to notes of the source that are not given here.

Assays:
[1] = system: Meloidogyne incognita nematodes; experiment: Miniaturized greenhouse nematicidal efficacy assay (cucumber root gall rating); conditions: average of triplicate gall ratings
Protocol: A miniaturized greenhouse assay was conducted to study the effects of several N-,C-disubstituted azole analogs on Meloidogyne incognita nematodes.
Cucumber seeds were sprouted for 3 days in moist paper towels. Acceptable sprouts were 3 to 4 cm long, with several lateral roots just emerging.
Each test solution was evaluated in triplicate. Dry sand (10 mL) was added to each vial. Seedlings were planted by tilting the vial and laying the seedling in the correct orientation so that the cotyledons were just above the sand, and then tilting back to cover the radicles with sand.
A sample of the test solution (3.3 mL) was then added to each vial, and the vials were placed in racks under fluorescent light banks. The vials were inoculated two days after planting by adding 500 vermiform M. incognita eggs to each vial in deionized or spring water (50 μL). The vials were then kept under the fluorescent lamps at ambient room temperature and watered as needed with deionized water (1 mL), usually twice during duration of test.
Harvest of the cucumber plants was performed 10 to 12 days after inoculation by washing sand off the roots. A root gall rating was assigned using the following Gall rating scale (Gall: % root mass galled): 0=0-5%; 1=6-20%; 2=21-50%; and 3=51-100%.

[2] = 1 ppm, cucumber seedlings in sand, 500 M. incognita eggs, harvest 10 to 12 days after inoculation, scale 0=0-5%, 1=6-20%, 2=21-50%, 3=51-100% root mass galled
[3] = 8 ppm, cucumber seedlings in sand, 500 M. incognita eggs, harvest 10 to 12 days after inoculation, scale 0=0-5%, 1=6-20%, 2=21-50%, 3=51-100% root mass galled
[4] = 40 ppm, cucumber seedlings in sand, 500 M. incognita eggs, harvest 10 to 12 days after inoculation, scale 0=0-5%, 1=6-20%, 2=21-50%, 3=51-100% root mass galled

| Molecule | melting point [°C] | 40/8/1 ppm gall ratings [1, 2] | 40/8/1 ppm gall ratings [1, 3] | 40/8/1 ppm gall ratings [1, 4] | 40/8/1 ppm gall ratings ([1]; comparative compositions at 1 ppm, letters a-d mark separate tests, scale 0-3) |
| --- | --- | --- | --- | --- | --- |
| c1ccc(-n2cc(-c3ccco3)nn2)cc1 [Formula Ia-i, 4-(furan-2-yl)-1-phenyl-1H-1,2,3-triazole] | 118 to 120 | – | – | – | – |
| c1ccc(-n2ncc(-c3cccs3)n2)cc1 [Formula Id-i, 2-phenyl-4-(thiophen-2-yl)-2H-1,2,3-triazole] | 78 | – | – | – | – |
| Fc1ccc(-c2cn(-c3cccs3)nn2)c(F)c1 [IIa-i, 4-(2,4-difluorophenyl)-1-(thiophen-2-yl)-1H-1,2,3-triazole] | – | 1.67 | 0.00 | 0.00 | – |
| c1ccc(-c2cn(-c3cccs3)nn2)cc1 [IIa-ii, 4-phenyl-1-(thiophen-2-yl)-1H-1,2,3-triazole] | – | 1.67 | 0.00 | 0.00 | – |
| c1ccc(-c2cn(-c3ccco3)nn2)cc1 [IIa-iii, 1-(furan-2-yl)-4-phenyl-1H-1,2,3-triazole] | – | 2.00 | 1.33 | 0.00 | – |
| Fc1ccc(-c2cn(-c3cccs3)nn2)cc1 [IIa-iv, 4-(4-fluorophenyl)-1-(thiophen-2-yl)-1H-1,2,3-triazole] | – | 2.67 | 1.33 | 0.33 | – |
| Clc1ccc(-c2cn(-c3ccco3)nn2)cc1 [IIa-v, 4-(4-chlorophenyl)-1-(furan-2-yl)-1H-1,2,3-triazole] | – | 2.33 | 0.67 | 0.00 | – |
| Clc1ccc(-c2cn(-c3cccs3)cn2)cc1 [IIc-i, 4-(4-chlorophenyl)-1-(thiophen-2-yl)-1H-imidazole] | – | 1.67 | 1.33 | 0.00 | – |
| c1ccc(-c2cn(-c3cccs3)cn2)cc1 [IIc-iii, 4-phenyl-1-(thiophen-2-yl)-1H-imidazole] | – | 2.33 | 1.33 | 0.00 | – |
| Clc1ccc(-c2cn(-c3ccco3)cn2)cc1 [IIc-iv, 4-(4-chlorophenyl)-1-(furan-2-yl)-1H-imidazole] | – | 2.33 | 2.00 | 0.33 | – |
| c1ccc(-n2cc(-c3ccco3)nn2)cc1 [Ia-i, 4-(furan-2-yl)-1-phenyl-1H-1,2,3-triazole] | – | 2.67 | 1.33 | 0.00 | – |
| Fc1ccc(-n2cc(-c3cccs3)nn2)c(F)c1 [Ia-ii, 1-(2,4-difluorophenyl)-4-(thiophen-2-yl)-1H-1,2,3-triazole] | – | 3.00 | 2.33 | 0.00 | – |
| Clc1ccc(-n2cc(-c3ccco3)nn2)cc1 [Ia-iiii, 1-(4-chlorophenyl)-4-(furan-2-yl)-1H-1,2,3-triazole] | – | 2.67 | 1.00 | 0.00 | – |
| Fc1ccc(-n2cc(-c3ccco3)nn2)cc1 [Ia-iv, 1-(4-fluorophenyl)-4-(furan-2-yl)-1H-1,2,3-triazole] | – | 2.33 | 1.67 | 0.33 | – |
| Fc1ccc(-n2cc(-c3ccco3)nn2)c(F)c1 [Ia-v, 1-(2,4-difluorophenyl)-4-(furan-2-yl)-1H-1,2,3-triazole] | – | 2.33 | 0.67 | 0.00 | – |
| c1ccc(-n2cc(-c3cccs3)cn2)cc1 [Ib-i, 1-phenyl-4-(thiophen-2-yl)-1H-pyrazole] | – | 3.00 | 0.33 | 0.00 | – |
| Clc1ccc(-n2cc(-c3cccs3)cn2)cc1 [Ib-ii, 1-(4-chlorophenyl)-4-(thiophen-2-yl)-1H-pyrazole] | – | 2.33 | 0.67 | 0.00 | – |
| c1ccc(-n2cc(-c3ccco3)cn2)cc1 [Ib-iii, 4-(furan-2-yl)-1-phenyl-1H-pyrazole] | – | 2.67 | 1.67 | 0.00 | – |
| Clc1ccc(-n2cnc(-c3ccco3)c2)cc1 [Ic-i, 1-(4-chlorophenyl)-4-(furan-2-yl)-1H-imidazole] | – | 3.00 | 2.00 | 0.33 | – |
| c1ccc(-n2ncc(-c3cccs3)n2)cc1 [Id-i, 2-phenyl-4-(thiophen-2-yl)-2H-1,2,3-triazole] | – | 1.67 | 0.33 | 0.00 | – |
| c1ccc(-n2ncc(-c3ccco3)n2)cc1 [Id-ii, 4-(furan-2-yl)-2-phenyl-2H-1,2,3-triazole] | – | 2.33 | 1.00 | 0.00 | – |
| Abamectin [reference compound] | – | – | – | – | 1.67^d |
